Data as given in patent US7452951B2, “Multifunctional self-decontaminating surface coating” (priority 2004, dated 2008).

Tests used:
[1] = system: Escherichia coli (Gram−); experiment: Minimum inhibitory concentration (MIC) study of quaternary ammonium biocides; format: cell-based; details: unit assumed
[2] = system: B. anthracis Sterne strain (Gram+); format: cell-based, Bacillus anthracis Sterne strain; details: unit assumed
[3] = system: Salmonella typhimurium (Gram−); experiment: Minimum inhibitory concentration (MIC) study of quaternary ammonium biocides; format: cell-based; details: unit assumed
[4] = system: S. aureus (Gram+); experiment: as above; format: cell-based, Staphylococcus aureus; details: unit assumed
[5] = system: E. coli; experiment: Tube dilution method with neutralizing agent to quench residual biocide activity; format: cell-based, Escherichia coli; details: starting cfu/mL 4.76 × 10^7; NG = no growth
[6] = system: B. anthracis Sterne; format: cell-based, Bacillus anthracis Sterne strain
[7] = system: S. aureus; experiment: Tube dilution method with neutralizing agent to quench residual biocide activity; format: cell-based, Staphylococcus aureus; details: starting cfu/mL 5.46 × 10^7; NG = no growth

Compound	MIC E. coli (Gram−) [1]	MIC B. anthracis (Gram+) [2]	MIC S. typhimurium (Gram−) [3]	MIC S. aureus (Gram+) [4]	E. Coli count after biocide, tube dilution method [5]	B. anthracis S.S. count after biocide, tube dilution method [6]	S. aureus count after biocide, tube dilution method [7]
CCCCCC[N+](C)(C)CCOCCOCCOC.[Cl-] [Entry 3]	2.5 µg/mL	2.5 µg/mL	> 5 µg/mL	> 5 µg/mL	–	–	–
CCCCCC[N+](C)(C)CCOCCOC.[Br-] [Entry 2, Hexyl-[2-(2-methoxy-ethoxy)-ethyl]-dimethyl-ammonium bromide]	2.5 µg/mL	> 5 µg/mL	> 5 µg/mL	> 5 µg/mL	–	–	–
CCCCCCCC[N+](C)(C)CCOCCOCCOCCOC.[Cl-] [Entry 8]	1.25 µg/mL	0.312 µg/mL	2.5 µg/mL	0.8 µg/mL	–	–	–
CCCCCCCC[N+](C)(C)CCOCCO.[Cl-] [Entry 9, Octyl-(2-(2-hydroxy-ethoxy)-ethyl)dimethylammonium chloride]	5 µg/mL	1.25 µg/mL	5 µg/mL	1.25 µg/mL	–	–	–
CCCCCCCC[N+](C)(C)CCOCCOCCOC.[Cl-] [Entry 7]	2.5 µg/mL	0.625 µg/mL	2.5 µg/mL	0.5 µg/mL	–	–	–
CCCCCC[N+](C)(C)CCOCCO.[Cl-] [Entry 10, Hexyl-(2-(2-hydroxy-ethoxy)-ethyl)dimethylammonium chloride]	5 µg/mL	> 5 µg/mL	> 5 µg/mL	> 5 µg/mL	–	–	–
CCCCCCCC[N+](C)(C)CCOC.[Cl-] [Entry 5]	0.625 µg/mL	< 0.312 µg/mL	2.5 µg/mL	0.18 µg/mL	–	–	–
c1ccncc1 [Pyridinium]	–	–	–	–	10^7 cfu/mL	10^6 cfu/mL	10^6 cfu/mL
CCCCCC[N+](C)(C)CCOCCOCCOCCOC.[Cl-] [Entry 4]	2.5 µg/mL	5 µg/mL	5 µg/mL	2.5 µg/mL	–	–	–
CCCCCCCC[N+](C)(C)CCOCCOC.[Cl-] [Entry 6]	2.5 µg/mL	1.25 µg/mL	5 µg/mL	0.31 µg/mL	–	–	–
CCCCCC[N+](C)(C)CCOC.[Br-] [Entry 1, Hexyl-(2-methoxy-ethyl)-dimethyl-ammonium bromide]	2.5 µg/mL	5 µg/mL	2.5 µg/mL	2.5 µg/mL	–	–	–
